Consider eight substances from paper PMC11184611, “Development of Nontoxic Peptides for Lipopolysaccharide Neutralization and Sepsis Treatment” (ACS Pharmacology & Translational Science, 2024).

Where two headings read alike, the source gives them in different places. No end group written: not given here. A value given as a limit tells only on which side of the number the result lay.

For one data set, the system named is S. aureus (ATCC 6538P). The data set is classed as cell-based, Staphylococcus aureus. The procedure: (§1) The antibacterial activity of the peptides was examined in sterile 96-well plates (Nunc 96-well microtiter plates) in a final volume of 100 μL, as follows. Aliquots (50 μL) of a suspension containing bacteria at a concentration of 10^6 colony-forming units/mL in culture medium (LB medium) were added to 50 μL of peptide serially diluted in culture medium (100–0.78 μM). Inhibition of growth was determined by the eye after an incubation of 18–20 h at 37 °C. Antibacterial activities were expressed as the minimal inhibitory concentration (MIC), the concentration at which 100% inhibition of growth was observed after 18–20 h of incubation. In these experiments, we have tested the effect of the peptides on E. coli (ATCC 25922) and Staphylococcus aureus (ATCC 6538P) as representatives of both Gram-negative and Gram-positive bacteria, respectively.

Data set [1] deals with RAW264.7 murine macrophages. The data set is classed as cell-based. The procedure:
All in vitro assays were performed on RAW264.7 murine macrophages (ATCC TIB-71). Cells were grown in Dulbecco’s modified eagle medium (DMEM) supplemented with 10% fetal bovine serum (FBS), L-glutamine, sodium pyruvate, nonessential amino acids, and antibiotics (Biological Industries, Beit Haemek, Israel). The incubator was set on 37 °C with a humidified atmosphere containing 5% CO2.
One ×10^4 cells per well were grown overnight on a 96-well plate at 37 °C with a humidified atmosphere containing 5% CO2. The following day, the media were replaced with 90 μL fresh culture medium and 10 μL solution buffer containing different concentrations of the different peptides. Peptides were serially diluted in culture medium to concentration ranging from 100 to 0.78 μM. The cells were then incubated for 2 h before adding to each well 50 μL of […] (XTT) reaction solution (Biological Industries). Cell viability was determined as described previously.[52],[54] The LC50 (the concentration at which 50% of the cells die) for each peptide was obtained from the dose-dependent cell viability curves.

A further data set has as its system E. coli (ATCC 25922). The data set is classed as cell-based. On the procedure:
as §1

Another data set concerns C57BL/6 mice. Nature of the data set: In vivo toxicity, i.p. injection. As to conditions: 100 mg/kg i.p. in 400 μL saline, highest dose tested, female C57BL/6 mice, n = 2, observed 7 days. On the procedure: Toxicity was tested by i.p. injection of K2(AL)8K2 (100 mg/kg in 400 μL saline) in female C57BL/6 mice (n = 2). Mice were continuously observed for 1 h immediately following injection and once per day for 7 days. To examine the effect of our peptide on acute septic shock driven by LPS hyper-activation of TLR4, we have used murine models as described before.[55],[56] Briefly, 12 weeks old C57BL/6 female mice were treated with 100 ng of LPS injected i.p. in a saline solution (200 μL, pH 6.5) containing 200 mg/mL of D-galactosamine (Calbiochem). Treated mice received one i.p. injection of 10 mg/kg peptide dissolved in saline (200 μL) followed by an injection of LPS. In the second model, heat-killed bacteria were used to induce a lethal septic shock. E. coli cells were grown to a mid-log phase (optical density = 0.5) at 37 °C, cooled on ice, and centrifuged at 1200g for 10 min at 4 °C. The cells were resuspended in saline for a concentration of 2 × 10^9 cells in 200 μL and heated at 95 °C for 30 min. Each animal received an i.p. injection of 2 × 10^9 cells in 200 μL saline followed by an injection of 10 mg/kg peptide dissolved in saline (200 μL). Animals were monitored for survival and signs of sepsis for the next 14 days after LPS injection. For LPS-driven septic shock, n = 8. For heat-killed bacteria, n = 11. […]

The mark [2] stands for this setting: XTT, cells incubated 2 h with peptide, 100 to 0.78 μM.
The mark [3] stands for this setting: 100% inhibition of growth, by eye, after 18–20 h at 37 °C, LB medium, peptide 100–0.78 μM.

ALALALALALALALALALKK-NH2 [(AL)9K2]: the “MIC S. aureus (ATCC 6538P)” value in the data set on S. aureus (ATCC 6538P) was greater than 100 µM. Further, the toxicity to macrophages result in data set [1] was “no”. For the same substance, the “LC50 macrophages RAW 264.7” value in data set [1] (2 h) was greater than 100 µM. In addition, in the data set with E. coli (ATCC 25922) (ATCC 25922), the “MIC E. coli (ATCC 25922)” value was greater than 100 µM.
With KALALALALALALALALALK-NH2 [K(AL)9K], the “MIC S. aureus (ATCC 6538P)” value in the data set with S. aureus (ATCC 6538P) is greater than 100 µM. Besides, the toxicity to macrophages entry in data set [1] is on record as “no”. Besides, the “LC50 macrophages RAW 264.7” value in data set [1] (2 h) is greater than 100 µM. For the same substance, the “MIC E. coli (ATCC 25922)” value in the data set with E. coli (ATCC 25922) (ATCC 25922) was greater than 100 µM.
As to “KALALALKALALKALALALK-NH2 [K(AL)3K(AL)2K(AL)3K]”, the “MIC S. aureus (ATCC 6538P)” value in the data set with S. aureus (ATCC 6538P) was found to be 12.5 µM. The “cytotoxicity” value in data set [1] (RAW264.7) is “moderate toxicity”. The “LC50 macrophages RAW 264.7” value in data set [1] (setting [2]) worked out at 25 µM. In addition, the toxicity to macrophages result in data set [1] (summary table, yes/no) is on record as “yes”. Further, the “MIC E. coli (ATCC 25922)” value against E. coli (ATCC 25922) (ATCC 25922) is 25 µM.
For KKALALALALALAKK-NH2 [K2(AL)5AK2], the “MIC S. aureus (ATCC 6538P)” value against S. aureus (ATCC 6538P) is greater than 100 µM. The toxicity to macrophages entry in data set [1] was “no”. The “LC50 macrophages RAW 264.7” value in data set [1] (2 h) is greater than 100 µM. Moreover, the “MIC E. coli (ATCC 25922)” value with E. coli (ATCC 25922) (ATCC 25922) is greater than 100 µM.
As to KKALALALALALALALALKK-NH2 [K2(AL)8K2], the “MIC S. aureus (ATCC 6538P)” value against S. aureus (ATCC 6538P) is greater than 100 µM. In the data set with C57BL/6 mice, the “toxicity in vivo” value is reported as “no lasting adverse effects were observed”. Also, in data set [1], the toxicity to macrophages entry was “no”. For the same substance, the “LC50 macrophages RAW 264.7” value in data set [1] (2 h) is greater than 100 µM. The “MIC E. coli (ATCC 25922)” value in the data set on E. coli (ATCC 25922) (ATCC 25922) was greater than 100 µM.
Consider KKALALALKK-NH2 [K2(AL)3K2], for which the “MIC S. aureus (ATCC 6538P)” value against S. aureus (ATCC 6538P) is greater than 100 µM. In addition, the toxicity to macrophages result in data set [1] was “no”. Further, the “LC50 macrophages RAW 264.7” value in data set [1] (2 h) was greater than 100 µM. Besides, the “MIC E. coli (ATCC 25922)” value in the data set with E. coli (ATCC 25922) (ATCC 25922) was greater than 100 µM.
For KKAVAVAVAVAVAVAVAVKK-NH2 [K2(AV)8K2], the “MIC S. aureus (ATCC 6538P)” value in the data set with S. aureus (ATCC 6538P) was greater than 100 µM. In addition, in data set [1] (2 h), the “LC50 macrophages RAW 264.7” value is 90 µM. The “MIC E. coli (ATCC 25922)” value against E. coli (ATCC 25922) (ATCC 25922) was greater than 100 µM.
For the substance LALALALALALALALALALK-NH2 [L(AL)9K], the “MIC S. aureus (ATCC 6538P)” value against S. aureus (ATCC 6538P) (setting [3]) is greater than 100 µM. In data set [1] (setting [2]), the “LC50 macrophages RAW 264.7” value was greater than 100 µM. In data set [1] (summary table, yes/no), the toxicity to macrophages entry is on record as “no”. Moreover, the “MIC E. coli (ATCC 25922)” value with E. coli (ATCC 25922) (setting [3]) was greater than 100 µM.
